Reference: US4753928A, “Process for obtaining sexual products from mammals suitable for natural or artificial fertilization” (INNOFINANCE Altalanos Innovacios Pengintezet, priority 1985, dated 1988)
“And” between values parts separate entries of the source, which are not always exact repeats. Equal values may be shown once. Where a SMILES comes first, the peptide text is derived from it. [ ]: non-standard residue; d: D form. pGlu = O=C1CC[C@@H](C(=O)O)N1

Columns and labels:
female lambs = test: Inducing super-ovulation in infant sheep; format: in vivo; conditions: 10 μg twice daily 5 days i.m., 70 μg on 6th day; 50-day old lambs
Experimental: 10 50-day old female lambs were administered each intramuscularly twice daily for 5 days 10 μg doses each of D-Phe^6, Gln^8, desGly^10 -GnRH ethylamide. […] Evaluation of treated and untreated control animals was carried out with the aid of laparoscopy. The results were similar to those outlined in Examples 1 to 4.

infant calves = test: Inducing super-ovulation in infant cattle; format: in vivo
Experimental: 8 65-old day infant calves were treated for 8 days, three times daily, with 2 μg of D-Phe^6, Gln^8, desGly^10 -GnRH ethylamide each. After a day of rest, on the 10th day 100 μg active ingredient was administered each intramuscularly. Following the last injection, ovaries from both sides were removed; generally 5-11 developed Graf-follicles were registered in each ovary. 50% of the follicles were already past the stage when tight to the touch, i.e. they were follicles just prior to ovulation.

[1] = test system: subordinate male chimpanzees; test: Treating physiological oligospermia of chimpanzee; format: in vivo
Experimental: In our case, apart from sperm obtained from the dominant males, that was stored in sperm bank, we had to have expressly, for the purpose of insemination, sperm from the 4 subordinate males (all sexually mature). Before the treatment began, all animals were ejaculated under narcosis through electric shock method. Density and motility of the ejaculate was evaluated under microscope, then it was put under deep freeze probe (-196° C.). […] Thereafter male chimpanzees weighing 60 to 90 kilograms were administered intramuscularly 100 μg of D-Phe^6, Gln^8, desGly^10 -GnRH ethylamide diluted in 1 ml of normal saline solution using compressed air injection technique. […] Qualitative and quantitative characteristics of the ejaculates were similar to those obtained from the dominant male and to values published in technical literature.
After diluting the ejaculate in a 1:1 ratio, deep-freeze test was positive and the 60% motility decreased to only 45%. Sperms of this quality either fresh or in deep freeze are entirely suitable for the purposes of insemination.

Bengalian tiger = test: Stimulating normospermia to hyperspermia in Bengalian tiger; format: in vivo
Experimental: A 8-year old Bengalian tiger of a weight of 200 kg belonging to Zoo copulated regularly, its mate becoming pregnant regularly for years. With this knowledge, under narcosis and in the mating season sperm sample was taken electrically and it was established that the sample density reached 3, motility was 30% and quantity of ejaculate amounted to 0.2 ml. […] Deep freezing of such minute quantity of ejaculate, however, is for technical reasons not possible. In order to protect the animal and to avoid liver damage, narcosis can be repeated every four days at the most and kept on for 4-5 hours. Collecting of sperms this way is unaccomplishable. In our process the male was separated from the female and was treated daily for 12 days with 10 μg each of D-Phe^6, Gln^8, DesGly^10 -GnRH ethyl-amide which was diluted in 1 ml of normal saline solution and administered intramuscularly, using compressed air injection technique. On the 12th day, through electrical means the animal was ejaculated under narcosis twice with an hour time interval; in this way 1 ml and 0.8 ml of sperms were obtained. The two samples were combined and examined; a density of 4 was established, motility being 70%. Sperm samples were deep frozen and 21 doses suitable for artificial fertilization were prepared.

male orang-utan = test: Treating aspermia caused by non-natural keeping in orang-utan; format: in vivo; conditions: 47th day
Source text: A 18-year old, male orang-utan of a weight of ca. […] and belonging to Zoo came into captivity in its infancy. Till the treatment it had three owners. […] It has been living in its present location for the past 11 years, it had neither a companion of his own kind nor a mate. […] The Zoo has been contacted that in case the animal is of Bornean Sub-species and fertile, it would be purchased. […] A factor questioning fertility in the case-history was the absence of aggressiveness typical of the male primates and the ceasing of regular masturbation during hospitalization 5-6 years before. Sperm sample was taken from the animal under narcosis, using electrical means. In the ejaculate secretion of the side gonads was exclusively found, in three parts 1--1 droplet, altogether a quantity of 0.1 ml.
Thereafter the animal was treated twice weekly with a dose of 100 μg D-Phe^6, Gln^8, DesGly^10 -GnRH ethylamide, i.e. similarly to the method used in Example 11. During treatment movement of the animal became more live and active. This, however, could not be attributed to the growth of libido, since it could have been caused by the fear from firing airgun injector. Treatment was finished on the 47th day following the first shot and ejaculate was taken twice under renewed narcosis and one hour interval; in this way altogether 3.2 ml of sperms were obtained. Density of sperm was 3, motility 35%. Amount of degenerated sperms reached 20%, practically made up of entirely young development forms (neck and middle part plasma droplets).

female wild cats = test: Cancelling seasonal unoestrus in adult wild cat; format: in vivo, Felis silvestris; conditions: after 4 days; i.m. 100 μg then 500 μg two hours later, repeated after 48 hours
Experimental: 2 female wild cats from Zoo, with an average weight of 6 kg and having under normal conditions a cycle between February and March, were treated with D-Phe^6, Gln^8, desGly^10 -GnRH ethyl-amide. Before treatments began, abdominal cavity was opened under narcosis in order to see the condition of both ovaries. After sewing up the abdomen, animals were treated every second day, four times in total through intramuscular injection of the active ingredient diluted in normal saline solution. A two-hour interal was kept between the first and second injection; the first dose was 100 μg, the second one 500 μg. This was followed after 48 hours by the third dose of 100 μg, then two hours later by the fourth dose of 500 μg. On the 0., 2., 4. and 8th day of the treatment abdomen was opened under narcosis and changes in condition of the ovaries were visually evaluated. After treatment both ovaries were removed, fixed and their hystological evaluation was carried out.
On the 0. day of the treatment on left side ovary of both animals 3-4 supposed secondary follicles and 1 degenerated old corpus luteum, while on the right side ovary 5-6 supposed secondary follicles could be seen. […]

[2] = test system: intact ovaries in organ culture; test: Production of ova in cattle in vitro from ovary organ culture; format: cell-based; conditions: 10^-9 -10^-8 g/ml; spontaneous ovulations and punctured ova
Experimental: Cattle in slaughter-house was stunned and bled, after which intact ovaries were removed within 30-55 minutes. Then in laboratory conditions they were placed in […]. To this culture liquid D-Phe^6, Gln^8, desGly^10 -GnRH ethyl-amide was given in a concentration of 10^-9 -10^-8 g/ml. Ovary stock took 16 to 43 hours to ovulate in organ culture. Out of the spontaneous ovulations of in vitro ovaries and from ova obtained with puncturing 85% were capable to continue meiosis (reductive cell division) and to be successfully fertilized in vitro by tractable sperms of cattle.

Siberian tiger male = test: Treating Siberian tiger infertile owing to degenerated spermatogeny; format: in vivo
Source text: A 8-year old Siberian tiger male of 120 kg and belonging to Zoo has lived with its mate for three years. Regular copulations took place on oestrus of the female, but no offspring was produced in any year. The possiblity that the female was at fault had to be excluded because previously she had pregnancy from an other male and the young ones born were reared as well. From the male in question through electrical means ejaculate was obtained under narcosis and it was established that it was very thin, 4-5 degenerate, vibrating sperms could be seen in each field of vision. Forms of degeneration were characteristic of the younger phases of spermiogenesis. Thereafter the animal was treated oncy weekly intramuscularly with a 100 μg dose of D-Phe^6, Trp^7, Leu^8 -GnRH diluted in normal saline solution of 1 ml, using the compressed air injection technique. The male was kept with its mate and they copulated regularly during the treatments. […] Calculating from the time of birth, fertile copulation ensued 40-50 days following the first treatment.

[3] = test system: ovary of domestic cat kittens; test: Stimulating function of ovary in domestic cat (D-Phe6,Trp7,Leu8-GnRH); format: in vivo; conditions: 100 μg i.m. every second day, three times; 45 days old kittens
Experimental: 5 kittens each weighing 0.3 kg and being 45 days old were treated with D-Phe^6, Trp^7, Leu^8 -GnRH analogue in such a way that prior to treatments the left side ovary was removed under narcosis. Then the […] were treated every second day, three times in all with doses of 100 μg each of the active ingredient diluted in normal saline solution administered intramuscularly. After treatment the remaining right side ovaries were removed, examined visually, then, after fixing, hystological examination was carried out.
Ovaries removed prior to treatment were quite homogeneous, butter-yellow in colour, growing follicle could not be detected in them either visually or hystologically. Following treatment 7-8 corpora haemorrhagica and several (not countable) growing follicles were found.

SMILES: CCNC(=O)[C@@H]1CCCN1C(=O)[C@H](CCC(N)=O)NC(=O)[C@H](CC(C)C)NC(=O)[C@@H](Cc1ccccc1)NC(=O)[C@H](Cc1ccc(O)cc1)NC(=O)[C@H](CO)NC(=O)[C@H](Cc1c[nH]c2ccccc12)NC(=O)[C@H](Cc1c[nH]cn1)NC(=O)[C@@H]1CCC(=O)N1 [D-Phe^6, Gln^8, desGly^10 -GnRH ethylamide] ([pGlu]HWSY[dF]LQP-NHEt)
- ovulations in each animal (female lambs): 3-9
- developed Graf-follicles in each ovary (infant calves; 2 μg three times daily 8 days, 100 μg i.m. on 10th day, 65-day old calves): 5-11
- follicles just prior to ovulation (infant calves; same treatment): 50%
- motility of ejaculate after deep freeze test ([1]; 4 weeks after first treatment): less than 10%
- young sperm formations in ejaculate ([1]; 4 weeks after first treatment, 100 μg i.m.): 40-60%
- defective sperms ([1]; 60 days after first treatment): below 30%
- sperm motility ([1]; 60 days after first treatment): exceeded 60%
- motility after deep-freeze test ([1]; 60 days, ejaculate diluted 1:1): 45%
- density of combined sample (Bengalian tiger; 12th day): 4
- sperm motility (Bengalian tiger; 12th day, combined sample): 70%
- sperm volume obtained per ejaculation (Bengalian tiger; 12th day, 10 μg daily i.m. for 12 days, two ejaculations one hour apart, 0.2 ml before treatment, Gln^8, DesGly^10 -GnRH ethyl-amide): 1 mL and 0.8 mL
- motility of remelting sperms (Bengalian tiger; after deep freezing): 60%
- doses suitable for artificial fertilization prepared (Bengalian tiger; deep frozen samples): 21
- degenerated sperms (male orang-utan): 20%
- density of sperm (male orang-utan): 3
- sperm motility (male orang-utan): 35%
- sperm volume obtained altogether (male orang-utan; 100 μg twice weekly, two ejaculations): 3.2 mL
- development of secondary follicles (female wild cats): all secondary follicles turned into Graf-follicles ovulated
- ova capable to continue meiosis and to be fertilized in vitro [2]: 85%

SMILES: CC(C)C[C@H](NC(=O)[C@H](Cc1c[nH]c2ccccc12)NC(=O)[C@@H](Cc1ccccc1)NC(=O)[C@H](Cc1ccc(O)cc1)NC(=O)[C@H](CO)NC(=O)[C@H](Cc1c[nH]c2ccccc12)NC(=O)[C@H](Cc1c[nH]cn1)NC(=O)[C@@H]1CCC(=O)N1)C(=O)N1CCC[C@H]1C(=O)NCC(N)=O [D-Phe^6, Trp^7, Leu^8 -GnRH] ([pGlu]HWSY[dF]WLPG-NH2)
- pregnancy of mate / offspring (Siberian tiger male; 100 μg once weekly i.m.): The female became pregnant, producing three healthy offsprings
- time of fertile copulation following the first treatment (Siberian tiger male; calculated from time of birth): 40 to 50 days
- corpora haemorrhagica on remaining ovary [3]: 7-8
